Test results reported in patent US10626364B2, “Method for increasing the glutathione level in cells” (Merck Patent GmbH, priority 2015, dated 2020).

What was measured:
Assay type in all cases: cell-based
CHO suspension cell line = assay: Bioreactor fed-batch experiment, IgG concentration in the supernatant (Cedex BioHT, turbidometric method); conditions: 15 mM SS in neutral pH main Feed-220, compared to standard (150 mM L-cysteine in separate alkaline feed); FIG. 1
Description: Bioreactor Fed-Batch Experiment in Cellvento® CHO 220 Medium and Feed 220 Using a CHO Suspension Cell Line in 1.2 L Glass Bioreactors.
15 mM S-sulfo-L-cysteine (SS) was integrated in the neutral pH main Feed-220 (n=5). Feed was added at 3% (v/v) at day 3 and 6% (v/v) at days 5, 7, 9 and 14. In the control condition, the feed without SS was added at the same ratios whereas 150 mM L-cysteine was added separately in an alkaline feed and added at following ratios 0.3% (v/v) at day 3 and 6% (v/v) at days 5, 7, 9, 14 (n=2). pH was controlled at 6.95+/−0.15. Dissolved oxygen concentration was controlled at 50% air saturation by sparging with pure oxygen and air via an open pipe sparger. Temperature was set at 37° C. and shifted from 37° C. to 33° C. on day 5 of culture. Agitation was maintained at 140 rpm. The IgG concentration in the supernatant was measured using the Cedex BioHT with a turbidometric method. It can be seen that the titer (IgG concentration) is higher with SS compared to standard.

CHO cells [1] = assay: Intracellular reactive species in fed-batch, Carboxy-H2DCFDA staining; conditions: 15 mM SSC condition vs control condition, FIG. 2
Description: Intracellular Reactive Species in CHO Cells in a Fed-Batch Using S-Sulfocysteine Vs the Control Process
Intracellular reactive species were quantified using 6-carboxy-2′,7′-dichlorodihydrofluorescein diacetate staining (Carboxy H2DCFDA, Life Technologies). The increase in fluorescence due to oxidative reactions was determined using a Perkin Elmer fluorescence reader. For these experiments, measurements were done during fed batch experiments comparing the control condition and 15 mM SSC condition. Samples were taken every day and analyzed immediately. Briefly, 3×10^5 cells were centrifuged (1200 rpm, 5 min) and either resuspended in PBS (negative control) or loaded with 50 μM Carboxy-H2DCFDA and incubated for 20 min at 37° C. and 1000 rpm. Cells were then centrifuged, resuspended in PBS and analyzed using the plate reader (n=3 for both conditions).

CHO cells [2] = assay: Intracellular total glutathione (GSH and GSSG) during fed-batch, UPLC; conditions: equivalent amounts of cysteine or S-sulfocysteine, compared to cells with cysteine
Description: Intracellular Total Glutathione in CHO Cells During a Fed-Batch Using S-Sulfocysteine Vs the Control Process
To quantify intracellular total glutathione, cells were washed three times in cold PBS and frozen at −20° C. for further analysis. To inhibit the activity of potential Cys-converting enzymes, 12×10^6 cells were lysed in 100 μl of phosphoSafe reagent (Merck Millipore) containing four phosphatase inhibitors: sodium fluoride, sodium vanadate, β-glycerophosphate and sodium pyrophosphate and supplemented with 20 mM iodoacetamide (alkylation of all enzyme containing one cysteine in the active site). The glutathione concentrations (GSH and GSSG) were determined via UPLC using a pre-column derivatization relying on AccQ Tag Ultra® reagent kit. Derivatization, chromatography and data analysis were carried out following the supplier recommendations (Waters, Milford, Mass.). Total glutathione was obtained by addition of GSH and GSSG and normalized to the concentration obtained in the control condition each day of the FB process.

For `N[C@H](CSS(=O)(=O)O)C(=O)O` [S-sulfocysteine, (S)-2-amino-3-sulfosulfanylpropanoic acid], the “titer (IgG concentration)” value (CHO suspension cell line) was “higher”, the “fluorescence intensity (intracellular reactive species)” value (CHO cells [1]) was “lower fluorescence intensity” and the “amount of GSH in cells” value (CHO cells [2]) was “higher amount of GSH”.
